Experimental data: US20210221866A1, “PROTEASE-RESISTANT LIPIDATED GLP-1 ANALOGS” (MEDIMMUNE LIMITED, priority 2015, published 2021)
Like-named read-outs stand apart in the source and are kept apart here. Numbered stars: 1 amine (or outer) side, 2 acyl side, 3 side chain; on linkers, the order of the positions; unused ones are H or OH. Square brackets hold non-standard residues; d marks the D form. Side chains are listed from the residue outwards. Peptide text beside a SMILES is read from it. * marks the point of attachment. C18 diacid = O=C(O)CCCCCCCCCCCCCCCCC(=O)*; γGlu = O=C(O)[C@H](CCC(=O)[*:2])N[*:1]; αMeF = C[C@](N)(Cc1ccccc1)C(=O)O; αMeK = C[C@](N)(CCCCN)C(=O)O; Lauroyl = CCCCCCCCCCCC(=O)*; αMeS = C[C@](N)(CO)C(=O)O; AEEA = NCCOCCOCC(=O)O; Aib = CC(C)(N)C(=O)O

Biological target: T1, human GLP-1 receptor (GLP-1R) (Homo sapiens, UniProt P43220)
T1 construct: expressed in transfected cells; host or cells: HEK293 cells or CHO cells
Assay: cAMP assay, human GLP-1R cells
Assay type: cell-based
Protocol: Sample dilutions are made in duplicate.
A frozen cryo-vial of cells expressing the receptor of interest is thawed rapidly in a water-bath, transferred to pre-warmed assay buffer and spun at 240×g for 5 minutes. Cells are re-suspended in assay buffer at a batch-dependent optimized concentration (e.g. hGCGR cells at 2×10^5 cells/ml, hGLP-1R and hGIPR cells at 1×10^5 cells/ml).
To this, 5 μL cell suspension is added and the plates incubated at room temperature for 30 minutes.
cAMP levels are measured using a commercially available cAMP dynamic 2 HTRF kit (Cisbio, Cat #62AM4PEJ), following the two step protocol as per manufacturer's recommendations. In brief; anti-cAMP cryptate (donor fluorophore) and cAMP-d2 (acceptor fluorophore) are made up separately by diluting each 1/20 in conjugate & lysis buffer provided in the kit. 5 μL anti-cAMP cryptate is added to wells of the assay plate, and 5 μL cAMP-d2 is added to wells except non-specific binding (NSB) wells, to which conjugate and lysis buffer are added. […] EC50 values of the synthetic peptides determined in cAMP assays are then determined.
Data is transformed to % Delta F as described in the manufacturer's guidelines and analyzed by 4-parameter logistic fit to determine EC50 values. […] To compare the balance of activities at the GLP-1R and GCGR between different peptides and across different conditions, these can be correlated, where the EC50's are related to those of comparator peptides.

[1] = cAMP activity, mean of n1 and n2, read-out: Mean pM GLP-1R
[2] = cAMP activity, second determination (n2), read-out: Primary assay EC50 GLP-1R n2

T1 sequence (P43220 24-463): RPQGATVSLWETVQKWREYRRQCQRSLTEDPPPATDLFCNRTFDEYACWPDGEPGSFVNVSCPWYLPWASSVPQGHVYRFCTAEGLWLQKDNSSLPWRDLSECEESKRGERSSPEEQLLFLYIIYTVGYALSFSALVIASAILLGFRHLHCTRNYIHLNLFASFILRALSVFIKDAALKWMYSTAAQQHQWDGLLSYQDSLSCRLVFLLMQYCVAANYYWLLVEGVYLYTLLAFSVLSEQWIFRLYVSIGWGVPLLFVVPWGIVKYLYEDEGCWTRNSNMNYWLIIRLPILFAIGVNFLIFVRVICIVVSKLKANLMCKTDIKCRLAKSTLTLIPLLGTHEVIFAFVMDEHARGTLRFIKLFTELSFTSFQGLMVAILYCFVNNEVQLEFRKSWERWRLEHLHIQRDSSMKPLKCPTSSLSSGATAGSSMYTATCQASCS

| Structure (SMILES) | EC50 [1] [pM] | EC50 [2] [pM] | further results |
| --- | --- | --- | --- |
| CC[C@H](C)[C@H](NC(=O)[C@](C)(Cc1ccccc1)NC(=O)[C@H](CCC(=O)O)NC(=O)[C@](C)(CCCCN)NC(=O)[C@H](C)NC(=O)[C@H](C)NC(=O)[C@H](CCC(=O)O)NC(=O)CNC(=O)[C@H](CCC(=O)O)NC(=O)[C@H](CC(C)C)NC(=O)[C@H](CCCCNC(=O)COCCOCCNC(=O)COCCOCCNC(=O)CC[C@H](NC(=O)CCCCCCCCCCCCCCCCC(=O)O)C(=O)O)NC(=O)[C@H](CO)NC(=O)[C@](C)(CO)NC(=O)[C@@H](NC(=O)[C@H](CC(=O)O)NC(=O)[C@H](CO)NC(=O)[C@@H](NC(=O)[C@](C)(Cc1ccccc1)NC(=O)[C@H](CO)NC(=O)CNC(=O)[C@H](CCC(=O)O)NC(=O)C(C)(C)NC(=O)[C@@H](N)Cc1c[nH]cn1)[C@@H](C)O)C(C)C)C(=O)N[C@@H](C)C(=O)N[C@@](C)(Cc1ccccc1)C(=O)N[C@H](C(=O)N[C@H](C(=O)N[C@@](C)(CCCCN)C(=O)NCC(=O)NCC(N)=O)C(C)C)C(C)C [compound 116] | 9 | 9.12 |  |
| CCCCCCCCCCCC(=O)N[C@@H](CCC(=O)N[C@@H](CCC(=O)NCCCC[C@H](NC(=O)[C@H](C)NC(=O)[C@H](C)NC(=O)[C@H](CCC(=O)O)NC(=O)CNC(=O)[C@H](CCC(=O)O)NC(=O)[C@H](CC(C)C)NC(=O)[C@](C)(Cc1ccccc1)NC(=O)[C@H](CO)NC(=O)[C@](C)(CO)NC(=O)[C@@H](NC(=O)[C@H](CC(=O)O)NC(=O)[C@H](CO)NC(=O)[C@@H](NC(=O)[C@](C)(Cc1ccccc1)NC(=O)[C@H](CO)NC(=O)CNC(=O)[C@H](CCC(=O)O)NC(=O)C(C)(C)NC(=O)[C@@H](N)Cc1c[nH]cn1)[C@@H](C)O)C(C)C)C(=O)N[C@@H](CCC(=O)O)C(=O)N[C@@](C)(Cc1ccccc1)C(=O)N[C@H](C(=O)N[C@@H](C)C(=O)N[C@@](C)(Cc1ccccc1)C(=O)N[C@H](C(=O)N[C@H](C(=O)N[C@@](C)(CCCCN)C(=O)NCC(=O)NCC(N)=O)C(C)C)C(C)C)[C@@H](C)CC)C(=O)O)C(=O)O [compound 129] | 11.5 |  |  |
| CC[C@H](C)[C@H](NC(=O)[C@](C)(Cc1ccccc1)NC(=O)[C@H](CCC(=O)O)NC(=O)[C@H](CCCCNC(=O)CC[C@H](NC(=O)CC[C@H](NC(=O)CCCCCCCCCCCCCCCCC(=O)O)C(=O)O)C(=O)O)NC(=O)[C@H](C)NC(=O)[C@H](C)NC(=O)[C@H](CCC(=O)O)NC(=O)CNC(=O)[C@H](CCC(=O)O)NC(=O)[C@H](CC(C)C)NC(=O)[C@](C)(Cc1ccccc1)NC(=O)[C@H](CO)NC(=O)[C@](C)(CO)NC(=O)[C@@H](NC(=O)[C@H](CC(=O)O)NC(=O)[C@H](CO)NC(=O)[C@@H](NC(=O)[C@](C)(Cc1ccccc1)NC(=O)[C@H](CO)NC(=O)CNC(=O)[C@H](CCC(=O)O)NC(=O)C(C)(C)NC(=O)[C@@H](N)Cc1c[nH]cn1)[C@@H](C)O)C(C)C)C(=O)N[C@@H](C)C(=O)N[C@@](C)(Cc1ccccc1)C(=O)N[C@H](C(=O)N[C@H](C(=O)N[C@@](C)(CCCCN)C(=O)NCC(=O)NCC(N)=O)C(C)C)C(C)C [compound 156] | 105 |  |  |
| CC[C@H](C)[C@H](NC(=O)[C@](C)(Cc1ccccc1)NC(=O)[C@H](CCC(=O)O)NC(=O)[C@H](CCCCNC(=O)CC[C@H](NC(=O)CC[C@H](NC(=O)CC[C@H](NC(=O)CCCCCCCCCCCCCCCCC(=O)O)C(=O)O)C(=O)O)C(=O)O)NC(=O)[C@H](C)NC(=O)[C@H](C)NC(=O)[C@H](CCC(=O)O)NC(=O)CNC(=O)[C@H](CCC(=O)O)NC(=O)[C@H](CC(C)C)NC(=O)[C@](C)(Cc1ccccc1)NC(=O)[C@H](CO)NC(=O)[C@](C)(CO)NC(=O)[C@@H](NC(=O)[C@H](CC(=O)O)NC(=O)[C@H](CO)NC(=O)[C@@H](NC(=O)[C@](C)(Cc1ccccc1)NC(=O)[C@H](CO)NC(=O)CNC(=O)[C@H](CCC(=O)O)NC(=O)C(C)(C)NC(=O)[C@@H](N)Cc1c[nH]cn1)[C@@H](C)O)C(C)C)C(=O)N[C@@H](C)C(=O)N[C@@](C)(Cc1ccccc1)C(=O)N[C@H](C(=O)N[C@H](C(=O)N[C@@](C)(CCCCN)C(=O)NCC(=O)NCC(N)=O)C(C)C)C(C)C [compound 157] | 227 |  |  |
| CC[C@H](C)[C@H](NC(=O)[C@](C)(Cc1ccccc1)NC(=O)[C@H](CCC(=O)O)NC(=O)[C@H](CCCCNC(=O)COCCOCCNC(=O)COCCOCCNC(=O)CCCCCCCCCCCCCCCCC(=O)O)NC(=O)[C@H](C)NC(=O)[C@H](C)NC(=O)[C@H](CCC(=O)O)NC(=O)CNC(=O)[C@H](CCC(=O)O)NC(=O)[C@H](CC(C)C)NC(=O)[C@](C)(Cc1ccccc1)NC(=O)[C@H](CO)NC(=O)[C@](C)(CO)NC(=O)[C@@H](NC(=O)[C@H](CC(=O)O)NC(=O)[C@H](CO)NC(=O)[C@@H](NC(=O)[C@](C)(Cc1ccccc1)NC(=O)[C@H](CO)NC(=O)CNC(=O)[C@H](CCC(=O)O)NC(=O)C(C)(C)NC(=O)[C@@H](N)Cc1c[nH]cn1)[C@@H](C)O)C(C)C)C(=O)N[C@@H](C)C(=O)N[C@@](C)(Cc1ccccc1)C(=O)N[C@H](C(=O)N[C@H](C(=O)N[C@@](C)(CCCCN)C(=O)NCC(=O)NCC(N)=O)C(C)C)C(C)C [compound 162] | 54 | 55 |  |
| CCCCCCCCCCCC(=O)N[C@@H](CCC(=O)NCCOCCOCC(=O)NCCOCCOCC(=O)NCCCC[C@H](NC(=O)CNC(=O)[C@H](CCC(=O)O)NC(=O)[C@H](CC(C)C)NC(=O)[C@H](Cc1ccc(O)cc1)NC(=O)[C@H](CO)NC(=O)[C@H](CO)NC(=O)[C@H](CCCCNC(=O)COCCOCCNC(=O)COCCOCCNC(=O)CC[C@H](NC(=O)CCCCCCCCCCC)C(=O)O)NC(=O)[C@H](CC(=O)O)NC(=O)[C@H](CO)NC(=O)[C@@H](NC(=O)[C@](C)(Cc1ccccc1)NC(=O)[C@H](CO)NC(=O)CNC(=O)[C@H](CCC(=O)O)NC(=O)C(C)(C)NC(=O)[C@@H](N)Cc1c[nH]cn1)[C@@H](C)O)C(=O)N[C@@H](C)C(=O)N[C@@H](C)C(=O)N[C@@](C)(CCCCN)C(=O)N[C@@H](CCC(=O)O)C(=O)N[C@@H](Cc1ccccc1)C(=O)N[C@H](C(=O)N[C@@H](C)C(=O)N[C@@H](CCCCNC(=O)COCCOCCNC(=O)COCCOCCNC(=O)CC[C@H](NC(=O)CCCCCCCCCCC)C(=O)O)C(=O)N[C@H](C(=O)N[C@H](C(=O)N[C@@H](CCC(=O)O)C(=O)NCC(=O)NCC(N)=O)C(C)C)C(C)C)[C@@H](C)CC)C(=O)O [compound 456] (H-H[Aib]EGS[αMeF]TSDK([AEEA-AEEA-γGlu-Lauroyl])SSYLEGK([AEEA-AEEA-γGlu-Lauroyl])AA[αMeK]EFIAK([AEEA-AEEA-γGlu-Lauroyl])VVEGG-NH2; N-terminus assumed) |  |  | EC50 (Table 11, tris-lipidated peptides, mean of n1 and n2, read-out: Primary assay EC50 Mean pM GLP-1R): 170 pM; EC50 (Table 11, tris-lipidated peptides, replicate n1, read-out: Primary assay EC50 GLP-1R n1): 116 pM; EC50 (Table 11, tris-lipidated peptides, replicate n2, read-out: Primary assay EC50 GLP-1R n2): 224 pM |

More lines, main results first:

| EC50 [1] [pM] | EC50 [2] [pM] | Structure (SMILES) | further results |
| --- | --- | --- | --- |
| 6 |  | CC[C@H](C)[C@H](NC(=O)[C@](C)(Cc1ccccc1)NC(=O)[C@H](CCC(=O)O)NC(=O)[C@](C)(CCCCN)NC(=O)[C@H](C)NC(=O)[C@H](C)NC(=O)[C@H](CCCCNC(=O)COCCOCCNC(=O)COCCOCCNC(=O)CC[C@H](NC(=O)CCCCCCCCCCCCCCCCC(=O)O)C(=O)O)NC(=O)CNC(=O)[C@H](CCC(=O)O)NC(=O)[C@H](CC(C)C)NC(=O)[C@](C)(Cc1ccccc1)NC(=O)[C@H](CO)NC(=O)[C@](C)(CO)NC(=O)[C@@H](NC(=O)[C@H](CC(=O)O)NC(=O)[C@H](CO)NC(=O)[C@@H](NC(=O)[C@](C)(Cc1ccccc1)NC(=O)[C@H](CO)NC(=O)CNC(=O)[C@H](CCC(=O)O)NC(=O)C(C)(C)NC(=O)[C@@H](N)Cc1c[nH]cn1)[C@@H](C)O)C(C)C)C(=O)N[C@@H](C)C(=O)N[C@@](C)(Cc1ccccc1)C(=O)N[C@H](C(=O)N[C@H](C(=O)N[C@@](C)(CCCCN)C(=O)NCC(=O)NCC(N)=O)C(C)C)C(C)C [compound 112] (H-H[Aib]EGS[αMeF]TSDV[αMeS]S[αMeF]LEGK([AEEA-AEEA-γGlu-C18 diacid])AA[αMeK]E[αMeF]IA[αMeF]VV[αMeK]GG-NH2; N-terminus assumed) |  |
| 18 | 17.4 | CC[C@H](C)[C@H](NC(=O)[C@](C)(Cc1ccccc1)NC(=O)[C@H](CCC(=O)O)NC(=O)[C@](C)(CCCCN)NC(=O)[C@H](C)NC(=O)[C@H](C)NC(=O)[C@H](CCC(=O)O)NC(=O)[C@H](CCCCNC(=O)COCCOCCNC(=O)COCCOCCNC(=O)CC[C@H](NC(=O)CCCCCCCCCCCCCCCCC(=O)O)C(=O)O)NC(=O)[C@H](CCC(=O)O)NC(=O)[C@H](CC(C)C)NC(=O)[C@](C)(Cc1ccccc1)NC(=O)[C@H](CO)NC(=O)[C@](C)(CO)NC(=O)[C@@H](NC(=O)[C@H](CC(=O)O)NC(=O)[C@H](CO)NC(=O)[C@@H](NC(=O)[C@](C)(Cc1ccccc1)NC(=O)[C@H](CO)NC(=O)CNC(=O)[C@H](CCC(=O)O)NC(=O)C(C)(C)NC(=O)[C@@H](N)Cc1c[nH]cn1)[C@@H](C)O)C(C)C)C(=O)N[C@@H](C)C(=O)N[C@@](C)(Cc1ccccc1)C(=O)N[C@H](C(=O)N[C@H](C(=O)N[C@@](C)(CCCCN)C(=O)NCC(=O)NCC(N)=O)C(C)C)C(C)C [compound 113] (H-H[Aib]EGS[αMeF]TSDV[αMeS]S[αMeF]LEK([AEEA-AEEA-γGlu-C18 diacid])EAA[αMeK]E[αMeF]IA[αMeF]VV[αMeK]GG-NH2; N-terminus assumed) |  |
